# According to patent US7365088B2, “Indazole-derivatives as factor Xa inhibitors” (Sanofi-Aventis Deutschland GmbH, priority 2003, dated 2008):
# Target: human factor Xa (Homo sapiens, UniProt P00742)
# Experiment: Factor Xa assay (chromogenic, substrate S-2765)
# Sequence of human factor Xa (P00742 235-488 limits assumed): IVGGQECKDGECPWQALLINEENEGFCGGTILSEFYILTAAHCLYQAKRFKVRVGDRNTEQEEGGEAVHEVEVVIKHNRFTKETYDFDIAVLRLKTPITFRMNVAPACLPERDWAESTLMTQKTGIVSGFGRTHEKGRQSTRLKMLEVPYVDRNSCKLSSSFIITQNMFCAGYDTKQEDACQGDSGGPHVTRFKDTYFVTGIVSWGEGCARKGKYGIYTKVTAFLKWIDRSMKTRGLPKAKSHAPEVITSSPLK
# Sequence of human factor Xa (P00742 41-179 partner limits assumed): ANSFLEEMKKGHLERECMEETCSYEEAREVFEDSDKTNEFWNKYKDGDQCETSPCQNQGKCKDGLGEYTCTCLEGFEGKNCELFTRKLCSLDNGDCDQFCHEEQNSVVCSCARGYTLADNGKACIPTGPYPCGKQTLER
row,Ki [nM],SMILES
1,35,"COC(=O)c1ccc2c(C(=O)NC3CCN(C(C)C)CC3)nn(Cc3cc(-c4ccc(Cl)s4)on3)c2c1 [Example 2, 1-[5-(5-Chloro-thiophen-2-yl)-isoxazol-3-ylmethyl]-3-(1-isopropyl-piperidin-4-ylcarbamoyl)-1H-indazole-6-carboxylic acid methyl ester]"
2,17,"COC(=O)c1cccc2c(C(=O)NC3CCN(C(C)C)CC3)nn(Cc3cc(-c4ccc(Cl)s4)on3)c12 [Example 3, 1-[5-(5-Chloro-thiophen-2-yl)-isoxazol-3-ylmethyl]-3-(1-isopropyl-piperidin-4-ylcarbamoyl)-1H-indazole-7-carboxylic acid methyl ester]"
3,86,CC(C)N1CCC(NC(=O)c2nn(CC(=O)Nc3ccc(Cl)cn3)c3ccccc23)CC1 [Example 7]
4,82,"CCOC(=O)OC(C)OC(=O)c1ccc2c(c1)c(C(=O)NC1CCN(C(C)C)CC1)nn2Cc1cc(-c2ccc(Cl)s2)on1 (stereo not drawn) [Example 9, 1-[5-(5-Chloro-thiophen-2-yl)-isoxazol-3-ylmethyl]-3-(1-isopropyl-piperidin-4-ylcarbamoyl)-1H-indazole-5-carboxylic acid 1-ethoxycarbonyloxy-ethyl ester]"
5,7,"CC(C)N1CCC(NC(=O)c2nn(Cc3cc(-c4ccc(Cl)s4)on3)c3cccc(-c4noc(=O)[nH]4)c23)CC1 [Example 11, 1-[5-(5-Chloro-thiophen-2-yl)-isoxazol-3-ylmethyl]-4-(5-oxo-4,5-dihydro-[1,2,4]oxadiazol-3-yl)-1H-indazole-3-carboxylic acid (1-isopropyl-piperidin-4-yl)-amide]"
6,5,"CC(C)N1CCC(NC(=O)c2nn(Cc3cc(-c4ccc(Cl)s4)on3)c3ccc(C(=O)N4CCC4)cc23)CC1 [Example 12, 5-(Azetidine-1-carbonyl)-1-[5-(5-chloro-thiophen-2-yl)-isoxazol-3-ylmethyl]-1H-indazole-3-carboxylic acid (1-isopropyl-piperidin-4-yl)-amide]"
7,40,"CC(C)N1CCC(NC(=O)c2nn(Cc3cc(-c4ccc(Cl)s4)on3)c3ccc(C(=O)NCCS(C)(=O)=O)cc23)CC1 [Example 13, 1-[5-(5-Chloro-thiophen-2-yl)-isoxazol-3-ylmethyl]-1H-indazole-3,5-dicarboxylic acid 3-[(1-isopropyl-piperidin-4-yl)-amide]5-[(2-methanesulfonyl-ethyl)-amide]]"

# More lines, now with the values behind:
row,SMILES,Ki [nM]
1,"COC(=O)c1ccc2c(c1)c(C(=O)NC1CCN(C(C)C)CC1)nn2Cc1cc(-c2ccc(Cl)s2)on1 [Example 1, 1-[5-(5-Chloro-thiophen-2-yl)-isoxazol-3-ylmethyl]-3-(1-isopropyl-piperidin-4-ylcarbamoyl)-1H-indazole-5-carboxylic acid methyl ester]",79
2,"CC(C)N1CCC(NC(=O)c2nn(Cc3cc(-c4ccc(Cl)s4)on3)c3ccc(C(=O)O)cc23)CC1 [Example 4, 1-[5-(5-Chloro-thiophen-2-yl)-isoxazol-3-ylmethyl]-3-(1-isopropyl-piperidin-4-ylcarbamoyl)-1H-indazole-5-carboxylic acid]",18
3,"CC(C)N1CCC(NC(=O)c2nn(Cc3cc(-c4ccc(Cl)s4)on3)c3cc(C(=O)O)ccc23)CC1 [Example 6, 1-[5-(5-Chloro-thiophen-2-yl)-isoxazol-3-ylmethyl]-3-(1-isopropyl-piperidin-4-ylcarbamoyl)-1H-indazole-6-carboxylic acid]",212
4,"CC(C)N1CCC(NC(=O)c2nn(Cc3cc(-c4ccc(Cl)s4)on3)c3ccccc23)CC1 [Example 8, 1-[5-(5-Chloro-thiophen-2-yl)-isoxazol-3-ylmethyl]-1H-indazole-3-carboxylic acid (1-isopropyl-piperidin-4-yl)-amide]",6
5,"CC(C)N1CCC(NC(=O)c2nn(Cc3cc(-c4ccc(Cl)s4)on3)c3cccc(C#N)c23)CC1 [Example 10, 1-[5-(5-Chloro-thiophen-2-yl)-isoxazol-3-ylmethyl]-4-cyano-1H-indazole-3-carboxylic acid (1-isopropyl-piperidin-4-yl)-amide]",9
